Measurements reported in publication PMC7044277 (Nature Communications, 2020).
Values joined by “and” are separate entries in the source; they are usually repeats but may differ in a detail not shown here. Equal entries are not always repeated.

How the values were obtained:
[1] = target: T1, DRD4 (D4.4 variant) wild-type (Homo sapiens, UniProt P21917); test: Radioligand competition binding, [3H]-N-methylspiperone; details: DRD4; [3H]-methylspiperone (0.8-1.0 nM); read-out: Ki
T1 sequence (P21917 1-419): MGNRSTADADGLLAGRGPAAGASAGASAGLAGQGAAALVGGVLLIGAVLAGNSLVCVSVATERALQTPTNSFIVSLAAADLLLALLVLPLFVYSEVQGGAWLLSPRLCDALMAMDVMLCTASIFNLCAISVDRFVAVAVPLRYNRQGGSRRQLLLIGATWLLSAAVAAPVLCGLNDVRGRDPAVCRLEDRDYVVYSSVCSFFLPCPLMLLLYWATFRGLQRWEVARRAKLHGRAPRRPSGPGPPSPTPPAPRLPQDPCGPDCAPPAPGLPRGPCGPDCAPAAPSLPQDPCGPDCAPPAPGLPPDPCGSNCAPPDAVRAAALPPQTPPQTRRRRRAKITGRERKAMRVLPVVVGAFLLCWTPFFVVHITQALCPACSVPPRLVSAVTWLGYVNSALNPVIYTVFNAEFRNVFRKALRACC

[2] = target: DRD3 wild-type (Homo sapiens, UniProt P35462); test: as above; details: DRD3 wild-type; read-out: pKi ± SEM (converted)
[3] = target: DRD2 (D2 long receptor) wild-type (Homo sapiens, UniProt P14416); test: Radioligand competition binding, [3H]-N-methylspiperone, HEK293T membranes; details: DRD2; [3H]-methylspiperone (0.8-1.0 nM); read-out: Ki
[4] = target: DRD2 (D2 long receptor) (Homo sapiens, UniProt P14416); test: Gαi/o-mediated cAMP inhibition (GloSensor split-luciferase cAMP reporter), HEK293T; assay type: cell-based; details: DRD2; antagonist, Gαi/o-mediated cAMP inhibition; read-out: EC50 ± SEM (antagonist);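 note: compounds applied 15 min at room temperature, then luciferin plus 400 nM isoproterenol to raise cAMP through endogenous β2-adrenergic receptors, luminescence read 15 min later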
[5] = target: DRD5 (Homo sapiens, UniProt P21918); test: β-arrestin2 recruitment (Tango); assay type: cell-based; details: Fig_S10e, single replicates
[6] = target: DRD1 (Homo sapiens, UniProt P21728); test: β-arrestin2 recruitment (Tango); assay type: cell-based; details: agonist mode
[7] = target: T2, 5HT6 (Homo sapiens, UniProt P50406); test: β-arrestin2 recruitment (Tango); assay type: cell-based; details: Fig_S10p, agonist mode
T2 construct: expressed in transfected cells; host or cells: HTLA cells expressing TEV-fused β-arrestin2

[8] = target: T3, 5HT7A (Homo sapiens, UniProt P34969); test: β-arrestin2 recruitment (Tango); assay type: cell-based; details: Fig_S10q, agonist mode
T3 construct: expressed in transfected cells; host or cells: HTLA cells expressing TEV-fused β-arrestin2
T3 sequence (P34969 1-445 isoform P34969-2): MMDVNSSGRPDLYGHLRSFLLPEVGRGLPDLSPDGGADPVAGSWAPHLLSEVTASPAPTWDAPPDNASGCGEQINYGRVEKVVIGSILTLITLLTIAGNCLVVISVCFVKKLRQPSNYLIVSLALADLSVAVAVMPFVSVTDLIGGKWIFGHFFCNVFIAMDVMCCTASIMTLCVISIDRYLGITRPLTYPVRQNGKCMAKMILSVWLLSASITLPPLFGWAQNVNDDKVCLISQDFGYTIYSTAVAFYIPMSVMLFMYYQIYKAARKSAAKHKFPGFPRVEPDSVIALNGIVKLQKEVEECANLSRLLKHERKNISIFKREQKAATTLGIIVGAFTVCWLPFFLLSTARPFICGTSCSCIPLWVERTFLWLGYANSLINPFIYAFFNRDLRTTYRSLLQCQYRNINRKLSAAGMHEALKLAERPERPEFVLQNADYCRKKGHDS

Sequence of DRD1 (P21728 whole entry): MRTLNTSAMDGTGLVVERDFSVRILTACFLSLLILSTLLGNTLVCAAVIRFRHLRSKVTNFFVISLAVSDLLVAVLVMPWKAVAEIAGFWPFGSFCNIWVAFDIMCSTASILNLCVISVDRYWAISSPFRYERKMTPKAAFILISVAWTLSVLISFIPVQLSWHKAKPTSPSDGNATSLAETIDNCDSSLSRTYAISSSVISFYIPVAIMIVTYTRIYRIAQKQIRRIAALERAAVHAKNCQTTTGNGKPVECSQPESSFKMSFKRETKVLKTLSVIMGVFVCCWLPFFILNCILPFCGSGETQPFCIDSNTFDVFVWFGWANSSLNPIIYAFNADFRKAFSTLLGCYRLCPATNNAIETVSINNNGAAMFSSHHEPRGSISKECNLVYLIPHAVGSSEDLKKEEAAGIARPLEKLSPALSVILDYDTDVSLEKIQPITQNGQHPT
Sequence of DRD5 (P21918 whole entry): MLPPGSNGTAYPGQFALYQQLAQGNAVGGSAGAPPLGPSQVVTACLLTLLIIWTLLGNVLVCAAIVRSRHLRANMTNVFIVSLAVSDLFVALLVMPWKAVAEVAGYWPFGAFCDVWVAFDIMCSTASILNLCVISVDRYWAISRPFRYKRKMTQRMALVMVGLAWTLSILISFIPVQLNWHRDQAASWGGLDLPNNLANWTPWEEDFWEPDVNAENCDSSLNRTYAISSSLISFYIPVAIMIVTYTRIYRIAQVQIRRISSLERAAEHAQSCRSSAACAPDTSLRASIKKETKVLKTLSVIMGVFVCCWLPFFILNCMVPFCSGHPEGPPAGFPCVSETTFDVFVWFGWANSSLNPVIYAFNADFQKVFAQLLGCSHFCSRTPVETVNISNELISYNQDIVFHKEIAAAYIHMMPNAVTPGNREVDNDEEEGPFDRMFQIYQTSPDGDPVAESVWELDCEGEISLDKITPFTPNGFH
T2 sequence (P50406 whole entry, the tested form may be a part): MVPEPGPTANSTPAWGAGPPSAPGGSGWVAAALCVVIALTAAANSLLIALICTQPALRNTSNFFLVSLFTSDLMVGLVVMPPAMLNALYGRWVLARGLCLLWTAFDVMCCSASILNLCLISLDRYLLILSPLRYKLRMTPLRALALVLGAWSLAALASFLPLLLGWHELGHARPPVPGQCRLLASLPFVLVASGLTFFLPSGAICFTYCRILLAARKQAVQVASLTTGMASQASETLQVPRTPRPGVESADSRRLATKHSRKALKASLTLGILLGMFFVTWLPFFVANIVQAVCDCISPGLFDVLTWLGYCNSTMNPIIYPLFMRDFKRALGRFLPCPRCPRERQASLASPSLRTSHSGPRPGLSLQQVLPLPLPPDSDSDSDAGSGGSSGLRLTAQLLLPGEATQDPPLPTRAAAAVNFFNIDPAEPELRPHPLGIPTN
Sequence of DRD2 (D2 long receptor) (P14416 whole entry): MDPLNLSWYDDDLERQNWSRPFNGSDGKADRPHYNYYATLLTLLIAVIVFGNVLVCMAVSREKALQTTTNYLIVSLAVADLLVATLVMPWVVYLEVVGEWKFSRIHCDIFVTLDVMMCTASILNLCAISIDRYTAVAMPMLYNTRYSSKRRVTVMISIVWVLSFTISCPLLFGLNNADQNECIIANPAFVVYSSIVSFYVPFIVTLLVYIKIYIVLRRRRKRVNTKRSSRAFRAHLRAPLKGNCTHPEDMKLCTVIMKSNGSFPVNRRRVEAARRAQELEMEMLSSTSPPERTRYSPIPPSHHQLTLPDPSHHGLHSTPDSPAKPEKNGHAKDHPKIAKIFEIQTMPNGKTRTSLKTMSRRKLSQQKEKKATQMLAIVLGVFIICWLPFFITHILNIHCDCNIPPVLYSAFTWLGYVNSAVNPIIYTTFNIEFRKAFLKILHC
Sequence of DRD2 (D2 long receptor) wild-type (P14416 whole entry): as above
Sequence of DRD3 wild-type (P35462 whole entry): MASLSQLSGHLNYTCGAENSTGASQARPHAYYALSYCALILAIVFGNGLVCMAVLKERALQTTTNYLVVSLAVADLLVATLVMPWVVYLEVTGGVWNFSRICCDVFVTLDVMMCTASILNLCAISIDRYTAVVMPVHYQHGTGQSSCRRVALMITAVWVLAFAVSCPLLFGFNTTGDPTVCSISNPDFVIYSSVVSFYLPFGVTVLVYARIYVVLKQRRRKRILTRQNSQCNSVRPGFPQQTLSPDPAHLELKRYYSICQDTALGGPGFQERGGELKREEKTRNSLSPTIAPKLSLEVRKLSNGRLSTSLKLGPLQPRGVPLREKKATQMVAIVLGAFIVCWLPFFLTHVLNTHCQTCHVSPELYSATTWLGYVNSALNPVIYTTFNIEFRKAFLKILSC

SMILES: CCCCN(C)C(C)C(=O)Nc1cc([N+](=O)[O-])ccc1OC (stereo not drawn) [O9LE9]
- Ki [1]: > 10 µM
- Ki [2]: 0.214 µM
- Ki [3]: 3.8 µM
- EC50 [4]: 3.55 ± 0.295 µM

SMILES: Oc1ccc2c(c1O)Oc1cccc3c1C2CNC3 (stereo not drawn) [dinoxyline]
- β-arrestin2 recruitment response, agonist mode (normalized) ([5]; Log[Drug] -6.52): 50.9959 and 44.5818 and 81.7753 and 73.11 and 53.8362
- β-arrestin2 recruitment response, agonist mode (normalized) ([5]; Log[Drug] -7): 44.4286 and 33.2805 and 57.3924 and 47.0403 and 55.7358 and 61.3062 and 41.0525 and 43.6565
- β-arrestin2 recruitment response, agonist mode (normalized) ([5]; Log[Drug] -7.52): 33.6662 and 25.4134 and 56.8006 and 39.9881 and 23.8046 and 44.1458 and 17.6483 and 11.4811
- β-arrestin2 recruitment response, agonist mode (normalized) ([5]; Log[Drug] -8): 7.481 and 4.412 and 28.4866 and 15.182 and 15.3449 and 6.879 and 1.575 and 2.947
- β-arrestin2 recruitment response, agonist mode (normalized) ([5]; Log[Drug] -8.52): 7.423 and 8.3056 and 10.7658 and 9.092 and 10.1938 and 2.126 and 2.041 and 8.64
- β-arrestin2 recruitment response, agonist mode (normalized) ([5]; Log[Drug] -9): 0.5231 and -1.384 and 1.379 and 3.9644 and 2.988 and 7.407 and -1.292 and -1.934 and 0.3332
- β-arrestin2 recruitment response, agonist mode (normalized) ([5]; Log[Drug] -9.52): 0.9986 and 0.1427 and 0.1268 and 2.609 and 1.523 and 1.227 and -2.233 and -1.075 and -0.4405
- β-arrestin2 recruitment response, agonist mode (normalized) ([5]; Log[Drug] -10): -2.61 and -1.543 and -0.2906 and 1.406 and 1.213 and 1.593 and -1.565 and -1.034 and 0.3624
- β-arrestin2 recruitment response, agonist mode (normalized) ([5]; Log[Drug] -10.52): 3.973 and -1.363 and 0.9616 and 3.254 and 1.908 and 2.385 and -0.2872 and 0.4781 and -0.9479
- β-arrestin2 recruitment response, agonist mode (normalized) ([5]; Log[Drug] -11): -1.141 and 0.9563 and 6.05 and 0.4043 and -0.1448 and 1 and -1.291 and -1.255 and 0.5855
- β-arrestin2 recruitment response, agonist mode (normalized) ([5]; Log[Drug] -11.52): 0.7872 and 1.828 and -1.791 and 1.074 and 2.305 and 1.525 and -1.001 and -2.087 and -0.1993
- β-arrestin2 recruitment response, agonist mode (normalized) ([5]; Log[Drug] -12): -1.5322 and -0.4861 and -0.05283 and -0.02136 and -0.01028 and 2.843 and -2.166 and -0.9521 and 0.6036
- Fig_S10d concentration-response source data, compound alone (replicates) ([6]; Log[Drug] -6.52): 10.0073
- Fig_S10d concentration-response source data, compound alone (replicates) ([6]; Log[Drug] -7): 4.307 and 1.205 and 1.227 and 4.484 and 2.979 and 2.557 and 2.04 and -0.1301 and 1.092
- Fig_S10d concentration-response source data, compound alone (replicates) ([6]; Log[Drug] -7.52): 1.579 and 3.303 and 0.5491 and 3.089 and 1.082 and 1.378 and -0.7612 and -0.8315 and -0.809
- Fig_S10d concentration-response source data, compound alone (replicates) ([6]; Log[Drug] -8): 1.257 and 1.231 and 1.566 and 0.913 and 0.3538 and 0.1991 and -0.676 and -1.057 and 0.2893
- Fig_S10d concentration-response source data, compound alone (replicates) ([6]; Log[Drug] -8.52): 0.2231 and 2.08 and 8.446 and 0.2359 and 0.07888 and 0.01718 and -0.4841 and -1.204 and -0.2743
- Fig_S10d concentration-response source data, compound alone (replicates) ([6]; Log[Drug] -9): 0.9179 and 0.03861 and 0.7078 and 0.082 and -0.04373 and 0.0164 and -1.424 and -1.237 and -0.4972
- Fig_S10d concentration-response source data, compound alone (replicates) ([6]; Log[Drug] -9.52): 0.9179 and 1.428 and 0.9008 and 0.3038 and -0.1367 and -0.264 and -0.706 and -1.205 and -0.04775
- Fig_S10d concentration-response source data, compound alone (replicates) ([6]; Log[Drug] -10): -0.2788 and -0.1244 and 1.737 and -0.3538 and -0.2647 and 0.1437 and -1.4279 and -0.8642 and -0.7996
- Fig_S10d concentration-response source data, compound alone (replicates) ([6]; Log[Drug] -10.52): -0.2788 and 0.2273 and 1.767 and 0.02109 and 0.9895 and -0.1132 and 0.1507 and -0.4242 and -0.1601
- Fig_S10d concentration-response source data, compound alone (replicates) ([6]; Log[Drug] -11): 0.5834 and 0.2231 and 0.5491 and -0.5092 and -0.2671 and 0.4842 and -1.071 and -0.647 and 0.1395
- Fig_S10d concentration-response source data, compound alone (replicates) ([6]; Log[Drug] -11.52): -0.1115 and 1.072 and 4.68 and 0.05545 and 0.239 and 0.3608 and 3.618 and -0.7331 and -0.985
- Fig_S10d concentration-response source data, compound alone (replicates) ([6]; Log[Drug] -12): -0.2702 and -0.1115 and 0.3903 and -0.474 and -0.4764 and -0.3218 and 3.0206 and -0.9897 and -0.8633

SMILES: CC[C@@H](CO)NC(=O)[C@@H]1C=C2c3cccc4[nH]cc(c34)C[C@H]2N(C)C1 [methylergonovine]
- β-arrestin2 recruitment response, replicate points of concentration-response curve ([7]; Log[Drug] -7.52): 58.3654 and 42.8218 and 40.7735 and 42.4938 and 47.6018 and 32.15
- β-arrestin2 recruitment response, replicate points of concentration-response curve ([7]; Log[Drug] -8): 38.2178 and 17.1349 and 29.2946 and 27.8088 and 40.0294 and 64.9029 and 31.7107 and 61.5077 and 39.0249 and 30.4136
- β-arrestin2 recruitment response, replicate points of concentration-response curve ([7]; Log[Drug] -8.52): 30.1013 and 10.6993 and 18.1498 and 24.4245 and 28.031 and 15.5168 and 0.8374 and 22.4349 and 11.5027 and 21.7874 and 10.2907 and 27.3285
- β-arrestin2 recruitment response, replicate points of concentration-response curve ([7]; Log[Drug] -9): 20.3729 and 3.9604 and 2.141 and 7.952 and 0.7859 and 8.081 and -4.077 and -4.555 and -0.4693 and 35.6884 and 0.3477 and 9.366
- β-arrestin2 recruitment response, replicate points of concentration-response curve ([7]; Log[Drug] -9.52): 14.1022 and -2.488 and 4.171 and 24.8948 and 4.829 and 2.461 and 0.773 and -7.38 and -5.613 and 10.7938 and 2.907 and -1.524
- β-arrestin2 recruitment response, replicate points of concentration-response curve ([7]; Log[Drug] -10): 15.029 and -5.149 and -2.667 and -0.08663 and 7.1866 and 6.531 and -8.448 and -13.3063 and 14.3186 and 3.129 and -2.7225 and -5.682
- β-arrestin2 recruitment response, replicate points of concentration-response curve ([7]; Log[Drug] -10.52): 3.317 and 8.465 and -0.4579 and 0.09901 and 5.631 and 26.1232 and -3.267 and -10.7113 and 5.834 and 27.1732 and 9.063 and 0.5697
- β-arrestin2 recruitment response, replicate points of concentration-response curve ([7]; Log[Drug] -11): 5.777 and -4.208 and -3.1745 and 6.856 and 4.8832 and -1.2628 and -4.113 and -7.095 and -5.0704 and 3.773 and -2.7003 and -4.128
- β-arrestin2 recruitment response, replicate points of concentration-response curve ([7]; Log[Drug] -11.52): -0.7317 and 4.554 and -0.9344 and -1.6151 and 0.5528 and 0.3631 and 17.5761 and 19.5362 and 55.6731 and -3.662 and -4.713 and -3.3
- β-arrestin2 recruitment response, replicate points of concentration-response curve ([8]; Log[Drug] -8.52): 57.2072 and 62.1985 and 0.2034 and 43.345 and 17.0227 and 39.6469 and 24.6535 and -5.393 and 3.158
- β-arrestin2 recruitment response, replicate points of concentration-response curve ([8]; Log[Drug] -9): 28.3493 and 32.0982 and 22.9584 and 37.3511 and 39.7632 and 14.7559 and 9.616 and 19.0912 and 1.923
- β-arrestin2 recruitment response, replicate points of concentration-response curve ([8]; Log[Drug] -9.52): -6.008 and 0.109 and 1.017 and 1.4676 and 14.0366 and 7.578 and 5.289 and -11.615 and 5.562
- β-arrestin2 recruitment response, replicate points of concentration-response curve ([8]; Log[Drug] -10): -3.669 and 16.1145 and 7.694 and 15.3008 and -0.2833 and 45.4083 and 32.224 and 8.8715 and 2.743
- β-arrestin2 recruitment response, replicate points of concentration-response curve ([8]; Log[Drug] -10.52): 10.5565 and 33.0718 and 2.739 and 13.5571 and -3.967 and -24.3897 and -1.32 and -17.1773 and 11.1342
- β-arrestin2 recruitment response, replicate points of concentration-response curve ([8]; Log[Drug] -11): -4.984 and -18.2941 and -15.3444 and 8.733 and -19.8489 and 29.4754 and -10.9833 and -5.732 and 20.4393
- β-arrestin2 recruitment response, replicate points of concentration-response curve ([8]; Log[Drug] -11.52): -6.553 and -20.7643 and -12.3583 and 13.7605 and -14.4653 and -10.5493 and -19.7417 and -12.1995 and -5.987
- β-arrestin2 recruitment response, replicate points of concentration-response curve ([8]; Log[Drug] -12): 42.2988 and -7.374 and -17.7056 and -12.5618 and -4.708 and 17.4441 and -2.395 and 25.3135 and 14.3302
